Reference: patent US20090291973A1, “Novel Quinazoline Derivatives and Their Medical Use” (NeuroSearch A/S, priority 2005, published 2009)

Columns and labels:
human Kv72+3 channels = molecular target: T1, human Kv72+3 channels (Homo sapiens, UniProt O43525+O43526); test: patch-clamp, HEK293 cell lines stably expressing the human Kv72+3 channels; assay type: cell-based; conditions: 3 μM, HEK293 cells stably expressing human Kv72+3 channels
T1 construct: expressed in transfected cells

activation compared to control (human Kv72+3 channels) [%]	melting point [°C]	SMILES
87		COc1ccc(C(C)C(=O)Nn2c(C(C)C)nc3cc(C(F)(F)F)ccc3c2=O)cc1 (centres unmarked) [Compound B20, N-(2-Isopropyl-4-oxo-7-trifluoromethyl-4H-quinazolin-3-yl)-2-(4-methoxy-phenyl)-propionamide]
	48 to 55	CC(C)c1nc2ccccc2c(=O)n1NC(=O)C(C)c1ccccc1 (centres unmarked) [Compound B1, N-(2-Isopropyl-4-oxo-4H-quinazolin-3-yl)-2-phenyl-propionamide]
	57 to 63	CCc1nc2cc(F)ccc2c(=O)n1NC(=O)C(C)c1ccccc1 (centres unmarked) [Compound A1, N-(2-Ethyl-7-fluoro-4-oxo-4H-quinazolin-3-yl)-2-phenyl-propionamide]
	188 to 193	CC(C)c1nc2ccccc2c(=O)n1NC(=O)C(c1ccccc1)C(C)C (centres unmarked) [Compound B2, N-(2-Isopropyl-4-oxo-4H-quinazolin-3-yl)-3-methyl-2-phenyl-butyramide]
60		CC(C)c1nc2ccccc2c(=O)n1NC(=O)C(C)c1cccc(F)c1 (centres unmarked) [Compound B16, 2-(3-Fluoro-phenyl)-N-(2-isopropyl-4-oxo-4H-quinazolin-3-yl)-propionamide]
